Results on one compound are retold here after ChEMBL document CHEMBL3526130, “An evaluation of using rat-derived single-dose neuropharmacokinetic parameters to project accurately large animal unbound brain drug concentrations” (Drug Metab Dispos, 2012).

What all share (assay type): ADME, organism-based
Data set [1] is described as follows: AUC(0 to infinity) in Sprague-Dawley rat brain at 2 mg/kg, sc by LC-MS/MS analysis. Also on record: dose 2 mg/kg, route subcutaneous, time infinity.
Data set [2] is described as follows: AUC(0 to 2 hrs) in Sprague-Dawley rat brain at 2 mg/kg, sc by LC-MS/MS analysis. Also on record: time < 2 hr, dose 2 mg/kg, route subcutaneous.
Data set [3] is described as follows: AUC(0 to infinity) in Sprague-Dawley rat plasma at 2 mg/kg, sc by LC-MS/MS analysis. Also on record: time infinity, dose 2 mg/kg, route subcutaneous.
Data set [4] is described as follows: AUC(0 to 2 hrs) in Sprague-Dawley rat cerebrospinal fluid at 2 mg/kg, sc by LC-MS/MS analysis. Further details: time < 2 hr, dose 2 mg/kg, route subcutaneous.
The nature of data set [5]: AUC(0 to infinity) in Sprague-Dawley rat cerebrospinal fluid at 2 mg/kg, sc by LC-MS/MS analysis. Also on record: time infinity, dose 2 mg/kg, route subcutaneous.
Data set [6] in a line: Ratio of drug level in brain to plasma in Sprague-Dawley rat at 2 mg/kg, sc by LC-MS/MS analysis. Also on record: dose 2 mg/kg, route subcutaneous. Particulars: read-out: BPR.
In data set [7] the test system is Nucleic Acid. As to the kind of experiment: Ratio of drug level in cerebrospinal fluid to unbound plasma concentration in Sprague-Dawley rat at 2 mg/kg, sc by LC-MS/MS analysis. Further details: dose 2 mg/kg, route subcutaneous. Particulars: in vivo.
The nature of data set [8]: AUC(0 to 2 hrs) in Sprague-Dawley rat plasma at 2 mg/kg, sc by LC-MS/MS analysis. Also on record: time < 2 hr, dose 2 mg/kg, route subcutaneous.
A short description of data set [9]: Ratio of unbound drug level in brain to plasma in Sprague-Dawley rat at 2 mg/kg, sc by LC-MS/MS analysis. Further details: dose 2 mg/kg, route subcutaneous.
A short description of data set [10]: Ratio of unbound brain concentration to drug level in cerebrospinal fluid in Sprague-Dawley rat at 2 mg/kg, sc by LC-MS/MS analysis. Further details: dose 2 mg/kg, route subcutaneous. As to conditions: in vivo.

Structures are written as SMILES.

Consider `Clc1ccc2c(c1)N=C(N1CCNCC1)c1ccccc1N2` [N-DESMETHYLCLOZAPINE], for which the AUC(0-inf) is 0.699 µg·h/mL in data set [1], 0.57 µg·h/mL in [3] and 0.00891 µg·h/mL in data set [5]. For the same compound, the values for the area under the curve AUC(0-t) at 2 h in data set [2], in data set [4] and in [8] were 0.221 µg·h/mL, 0.0048 µg·h/mL and 0.346 µg·h/mL, respectively. The Kp in data set [6] was determined as 0.64. Moreover, the Ratio in data set [7] is reported as 0.22; in [10], 0.26. Moreover, in data set [9], the Kp uu came to 0.06.
